Data: ChEMBL document CHEMBL1136858, “Synthesis of hydroxycoumarins and hydroxybenzo[f]- or [h]coumarins as lipid peroxidation inhibitors” (Bioorg Med Chem Lett, 2009)
pIC50: −log10 of the molar value. Calls of active or inactive are those of the source. The rule behind the calls is not given here.

Columns and labels:
[1] = Antioxidant activity assessed as inhibition of AAPH-induced lipid peroxidation at 100 uM; assay type: functional
[2] = system: Radical scavenging activity; test: Antioxidant activity assessed as DPPH radical scavenging activity at 0.01 mM after 60 mins; assay type: functional
[3] = system: Radical scavenging activity; test: Antioxidant activity assessed as DPPH radical scavenging activity at 0.05 mM after 20 mins; assay type: functional
[4] = system: Glycine max; test: Inhibition of soybean lipoxygenase at 100 uM by UV absorbance based assay
[5] = system: Radical scavenging activity; test: Antioxidant activity assessed as DPPH radical scavenging activity at 0.05 mM after 60 mins; assay type: functional
[6] = Antioxidant activity assessed as superoxide radical scavenging activity at 100 uM by nitroblue tetrazolium method; assay type: functional
[7] = system: Radical scavenging activity; test: Antioxidant activity assessed as DPPH radical scavenging activity at 0.01 mM after 20 mins; assay type: functional
[8] = system: Rattus norvegicus; test: Antiinflammatory activity in rat assessed as inhibition of carrageenan-induced paw edema at 0.01 mmol/kg, ip after 3.5 hrs; assay type: functional
[9] = Inhibition of soybean lipoxygenase by UV absorbance based assay; parameters: species or system Glycine max

Row | inhibition [4] | pIC50 [9] | SMILES | inhibition [1] | Activity [2] [%] | Activity [3] | Activity [5] | inhibition [6] | Activity [7] [%] | inhibition in vivo at 10 µmol/kg [8] [%] | Activity [8]
1 | 27% | – | Cc1cc(O)cc2oc(=O)ccc12 | 30% | 54 | 43% | 43% | 61% | 31 | – | –
2 | 25% | – | Cc1c(O)ccc2ccc(=O)oc12 | inactive | 27 | 14% | 15% | 60% | 26 | – | –
3 | inactive | – | O=c1ccc2c(o1)c(O)cc1ccccc12 | 100% | 54 | 22% | 20% | 79% | 46 | 18 | –
4 | 37% | – | O=c1ccc2cccc(O)c2o1 [8-Hydroxycoumarin] | 28% | 32 | 31% | 30% | 56% | 33 | 18 | –
5 | 15% | – | O=c1ccc2ccccc2o1 [COUMARIN] | – | 21 | inactive | inactive | – | 5 | 30 | –
6 | 12% | – | O=c1ccc2cc(O)c3c(c2o1)CCCC3 | 42% | 40 | 35% | 38% | 68% | 44 | – | –
7 | – | – | CC(Cc1ccc(O)c(O)c1)C(C)Cc1ccc(O)c(O)c1 (stereo not drawn) | – | 83 | 68% | 72% | – | 81 | – | –
8 | 38% | – | O=c1ccc2c(cc(O)c3ccccc32)o1 | 57% | 51 | 28% | 31% | inactive | 55 | 15 | –
9 | – | – | Cc1c(C)c2c(c(C)c1O)CCC(C)(C(=O)O)O2 (stereo not drawn) | 73% | – | – | – | – | – | – | –
10 | – | 4.37 | O=c1ccc2ccc(O)cc2o1 [UMBELLIFERONE] | 83% | 2 | inactive | inactive | 65% | 2 | – | inactive
11 | – | 4.00 | O=c1ccc2cc(O)c3ccccc3c2o1 | 100% | 89 | 65% | 72% | 61% | 77 | 39 | –
12 | – | 3.22 | O=C(O)/C=C/c1ccc(O)c(O)c1 [CAFFEIC ACID] | – | – | – | – | 71% | – | – | –
13 | 3% | – | Cc1cc2oc(=O)ccc2cc1O | 24% | 51 | 22% | 20% | 54% | 51 | – | –
14 | – | – | COc1ccc2c(c1)c(CC(=O)O)c(C)n2C(=O)c1ccc(Cl)cc1 [INDOMETHACIN] | – | – | – | – | – | – | 47 | –
15 | 89% | – | Cc1ccc2ccc(=O)oc2c1 | – | 2 | inactive | inactive | – | 2 | 55 | –
